From patent US8686143B2, “Compounds useful as inhibitors of Janus kinases” (Vertex Pharmaceuticals Incorporated, priority 2007, dated 2014) come the findings set out here.

A word on the Ki: it is the dissociation constant of the complex between target and ligand, obtained from inhibition or displacement.

The target in this assay is T1, JAK3 (Homo sapiens, UniProt P52333).
T1 sequence (P52333 1-1124): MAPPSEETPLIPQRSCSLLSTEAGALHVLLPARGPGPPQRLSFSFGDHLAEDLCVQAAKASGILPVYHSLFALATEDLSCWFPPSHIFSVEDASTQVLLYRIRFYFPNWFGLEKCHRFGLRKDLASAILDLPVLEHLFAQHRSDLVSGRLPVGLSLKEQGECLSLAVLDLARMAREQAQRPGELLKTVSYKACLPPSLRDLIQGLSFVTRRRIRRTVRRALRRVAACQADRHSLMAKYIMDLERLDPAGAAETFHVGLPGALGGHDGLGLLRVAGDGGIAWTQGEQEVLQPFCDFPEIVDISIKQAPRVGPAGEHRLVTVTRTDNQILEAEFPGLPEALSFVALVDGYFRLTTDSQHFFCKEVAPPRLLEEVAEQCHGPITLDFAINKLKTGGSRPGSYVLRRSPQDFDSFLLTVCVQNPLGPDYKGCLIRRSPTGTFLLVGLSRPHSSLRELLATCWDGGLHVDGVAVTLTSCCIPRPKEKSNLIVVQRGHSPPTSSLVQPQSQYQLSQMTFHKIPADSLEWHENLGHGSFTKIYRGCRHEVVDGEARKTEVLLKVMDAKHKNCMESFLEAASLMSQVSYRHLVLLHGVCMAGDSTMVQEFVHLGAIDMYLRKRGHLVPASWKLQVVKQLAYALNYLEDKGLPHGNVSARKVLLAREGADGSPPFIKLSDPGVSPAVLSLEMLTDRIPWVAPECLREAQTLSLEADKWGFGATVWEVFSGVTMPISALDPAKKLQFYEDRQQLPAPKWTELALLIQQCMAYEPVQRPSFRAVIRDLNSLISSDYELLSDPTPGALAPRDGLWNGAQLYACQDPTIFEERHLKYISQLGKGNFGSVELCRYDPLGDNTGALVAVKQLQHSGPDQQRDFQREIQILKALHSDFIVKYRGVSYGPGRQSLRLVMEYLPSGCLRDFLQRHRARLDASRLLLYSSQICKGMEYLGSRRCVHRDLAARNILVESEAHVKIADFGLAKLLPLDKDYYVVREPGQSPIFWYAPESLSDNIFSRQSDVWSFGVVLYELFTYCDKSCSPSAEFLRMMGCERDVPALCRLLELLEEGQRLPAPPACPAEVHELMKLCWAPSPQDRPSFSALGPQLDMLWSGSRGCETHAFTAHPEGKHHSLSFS
Description: JAK3 Inhibition Assay (33P incorporation into poly(Glu)4Tyr). The conditions noted are these: for Ki: 1 nM JAK3, 5 μM ATP, 1 μM poly(Glu)4Tyr, 25° C. Type of assay: biochemical. A digest of the protocol:
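Run at 25°C for 20 min with 1 nM enzyme in pH 7.4 HEPES buffer with MgCl2, DTT, NaCl and BSA. Final substrates were 5 μM ATP (33P-labelled) and 1 μM poly(Glu)4Tyr. Stopped with TCA, filtered, and 33P incorporation counted by scintillation.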

On to `O=C(NCC(F)(F)F)[C@H]1CCCN1c1nc(-c2ccc3ncsc3c2)ncc1F` [Compound 141], for which the inhibitory constant (Ki) lay in the range of 1 to 10 µM.

With `C[C@H](Nc1nc(-c2ccc(N)nc2)ncc1F)C(=O)NCC(F)(F)F` [Compound 6], the inhibition constant Ki was in the range of 10 to 50 µM.

The compound `O=C(NCC(F)(F)F)[C@H]1CCCN1c1ccnc(-c2c[nH]c3ccc(Cl)cc23)n1` [Compound 159] had an inhibition constant Ki of 10 to 50 µM.

As for `COc1ccc(-c2ncc(F)c(NCC(=O)NCC(F)(F)F)n2)cn1` [Compound 10], the “inhibition of JAK3 at concentrations of 50 μM” value (shortened to “inhibition of JAK3 … of 50 μM”) is recorded as “did not inhibit”.

`Nc1nc(Nc2ccc([C@H]3CC[C@H](N4CCOCC4)CC3)cc2)nn1-c1ncc(F)c(N2CCC[C@@H]2C(=O)NCC(F)(F)F)n1` [Compound 49] gave a Ki of 1 to 10 µM.

Consider `CC(C)[C@@H](Nc1ccnc(-c2c[nH]c(C(=O)NCc3ccccc3)c2)n1)C(=O)NCC(F)(F)F` [Compound 110], for which the Ki was 1 to 10 µM.

Turning to `COc1ccc(-c2ncc(F)c(N[C@H](C)C(=O)NCC(F)(F)F)n2)cn1` [Compound 18], the “inhibition of JAK3 … of 50 μM” value was “did not inhibit”.

As for `CC(C)(Nc1ccnc(-c2c[nH]c(C(=O)O)c2)n1)C(=O)NCC(F)(F)F` [Compound 128], the “inhibition of JAK3 … of 50 μM” value is on record as “did not inhibit”.

For the compound `CC(C)[C@@H](Nc1ccnc(-c2ccc3c(c2)OCO3)n1)C(=O)NCC(F)(F)F` [Compound 71], the Ki lay in the range of 10 to 50 µM.

As to `CNC(=O)c1cc(-c2ncc(F)c(N[C@@H](C(=O)NCC(F)(F)F)C(C)C)n2)c[nH]1` [Compound 103], the inhibitory constant (Ki) lay in the range of 10 to 50 µM.

Compound `O=C(NCC(F)(F)F)[C@H]1CCCN1c1nc(-c2ccc3c(c2)OCO3)ncc1F` [Compound 88] came in with an inhibitory constant (Ki) of 10 to 50 µM.

For the compound `CC(C)(Nc1nc(-c2ccc3c(c2)OCCO3)ncc1F)C(=O)NCC(F)(F)F` [Compound 125], the “inhibition of JAK3 … of 50 μM” value was “did not inhibit”.

As to `CC(C)NC(=O)c1cc(-c2nccc(NC(C)(C)C(=O)NCC(F)(F)F)n2)c[nH]1` [Compound 100], the Ki lay in the range of 10 to 50 µM.

The compound `CC(C)[C@@H](Nc1ccnc(-c2ccc(=O)[nH]c2)n1)C(=O)NCC(F)(F)F` [Compound 85] gave an inhibition constant Ki of 10 to 50 µM.

With `C[C@H](Nc1nc(-c2ccc(F)nc2)ncc1F)C(=O)NCC(F)(F)F` [Compound 1], the “inhibition of JAK3 … of 50 μM” value is reported as “did not inhibit”.

For `CC(C)[C@@H](Nc1ccnc(-c2c[nH]c3ccc(Cl)cc23)n1)C(=O)NCC(F)(F)F` [Compound 161], the Ki is 10 to 50 µM.

In the case of `CC(C)[C@@H](Nc1ccnc(-c2ccc3ncccc3c2)n1)C(=O)NCC(F)(F)F` [Compound 72], the Ki fell in the range of 1 to 10 µM.

`Nc1nc(Nc2ccc(F)cc2)nn1-c1cc(NCC(=O)NCC(F)(F)F)ncn1` [Compound 36] returned a Ki not above 1 µM.

`CC(C)(Nc1nc(-c2c[nH]c(C(=O)NC3CC3)c2)ncc1F)C(=O)NCC(F)(F)F` [Compound 94] returned a Ki of 1 to 10 µM.

In turn, `CC(=O)Nc1nc2ccc(-c3nccc(N4CCC[C@@H]4C(=O)NCC(F)(F)F)n3)cc2s1` [Compound 63] returned an inhibitory constant (Ki) of 10 to 50 µM.

On to `CC(C)(Nc1ccnc(-c2c[nH]c(C(=O)NC3CC3)c2)n1)C(=O)NCC(F)(F)F` [Compound 98], for which the Ki was in the range of 1 to 10 µM.

For `CC(C)[C@@H](Nc1nc(-c2ccc3c(c2)OCCO3)ncc1F)C(=O)NCC(F)(F)F` [Compound 166], the “inhibition of JAK3 … of 50 μM” value is “did not inhibit”.

Compound `C[C@H](Nc1cc(-n2nc(Nc3ccc(F)cc3)nc2N)ncn1)C(=O)NCC(F)(F)F` [Compound 33] yielded an inhibition constant (Ki) not above 1 µM.

Turning to `CN(C)C(=O)c1cc(-c2nccc(NC(C)(C)C(=O)NCC(F)(F)F)n2)c[nH]1` [Compound 132], the Ki was not above 1 µM.

As for `CC(C)(Nc1ccnc(-c2c[nH]c(C(=O)NCc3ccccc3)c2)n1)C(=O)NCC(F)(F)F` [Compound 99], the inhibitory constant (Ki) lay in the range of 10 to 50 µM.

Regarding `CCCNc1nc(N)n(-c2ncc(F)c(N3CCC[C@@H]3C(=O)NCC(F)(F)F)n2)n1` [Compound 54], the “inhibition of JAK3 at concentrations of 5.0 μM” value was “did not inhibit”.

Regarding `O=C(NCC(F)(F)F)[C@@H]1CCCN1c1nc(-c2cccnc2F)ncc1F` [Compound 24], the “inhibition of JAK3 … of 50 μM” value is recorded as “did not inhibit”.

`COc1ccc(Nc2nc(N)n(-c3ncc(F)c(NCCC(=O)NCC(F)(F)F)n3)n2)cc1` [Compound 50]: the Ki lay within 1 to 10 µM.

With `Nc1ncccc1-c1ncc(F)c(NCC(=O)NCC(F)(F)F)n1` [Compound 29], the Ki was not above 1 µM.

The compound `O=C(NCc1ccccc1)c1cc(-c2ncc(F)c(N3CCC[C@@H]3C(=O)NCC(F)(F)F)n2)c[nH]1` [Compound 116] gave a Ki of 10 to 50 µM.

Regarding `COc1ccc(Nc2nc(N)n(-c3ncc(F)c(N4CCC[C@@H]4C(=O)NCC(F)(F)F)n3)n2)c(C)c1` [Compound 40], the “inhibition of JAK3 at concentrations of 5.0 μM” value is reported as “did not inhibit”.

For the compound `O=C(O)c1cc(-c2ncc(F)c(N3CCC[C@@H]3C(=O)NCC(F)(F)F)n2)c[nH]1` [Compound 127], the “inhibition of JAK3 … of 50 μM” value is recorded as “did not inhibit”.

`Nc1nc(Nc2ccc(F)cc2)nn1-c1cc(N2CCC[C@@H]2C(=O)NCC(F)(F)F)ncn1` [Compound 37] yielded a Ki not above 1 µM.

For `CC(C)(Nc1nc(-c2ccc3nccnc3c2)ncc1F)C(=O)NCC(F)(F)F` [Compound 162], the Ki is not above 1 µM.

With `C[C@H](Nc1nc(-n2nc(Nc3ccc(F)cc3)nc2N)ncc1F)C(=O)NCC(F)(F)F` [Compound 45], the Ki lay in the range of 1 to 10 µM.

The compound `CC(C)[C@@H](Nc1ccnc(-c2ccc3ncsc3c2)n1)C(=O)NCC(F)(F)F` [Compound 148] displayed an inhibitory constant (Ki) not above 1 µM.

`CC(C)C(Nc1nc(-c2c[nH]c(C(=O)N3CCCC3)c2)ncc1F)C(=O)NCC(F)(F)F` (stereo not drawn) [Compound 107] showed a Ki of 1 to 10 µM.

As for `C[C@H](Nc1nc(-c2c[nH]c(C(=O)O)c2)ncc1F)C(=O)NCC(F)(F)F` [Compound 7], the “inhibition of JAK3 … of 50 μM” value was “did not inhibit”.

`Nc1nc(Nc2ccccc2)nn1-c1ncc(F)c(N2CCC[C@@H]2C(=O)NCC(F)(F)F)n1` [Compound 51] had a Ki of 1 to 10 µM.
